Results from patent US20100216795A1, “TNIK INHIBITOR AND THE USE” (priority 2008, published 2010).

Target: T1, human TNIK (N-terminal segment, TNIK_N) (Homo sapiens, UniProt Q9UKE5)
T1 construct: made in house; host or cells: Sf21 insect cells (baculovirus)
Assay: TNIK kinase assay (mobility shift)
Format: biochemical
Details: 25 μM ATP, 1 h at room temperature
Excerpt: A cDNA encoding the N-terminal segment (TNIK_N, residues 1-314) containing the kinase domain of human TNIK (NM_015028.1) was amplified from cDNA mixture synthesized from human tissue (Biochain) by PCR using the following primers: 5′-[…]-3′ ([SEQ ID NO:1]: forward primer, the underlined nucleotides indicates the location of a EheI site); 5′-[…]-3′ ([SEQ ID NO:2]: reverse primer, the underlined nucleotides indicates the location of a NotI site). The cDNA was subcloned into baculovirus transfer vector pFastBac_GSTb that includes protease cleavage site and glutathione S-transferase purification tag (GST-tag). The plasmid was purified and the insertion of the pFastBac_GSTb-TNIK_N was confirmed by DNA sequencing. Then E. coli DH10Bac competent cells were transformed with the plasmid to prepare the recombinant bacmid according to the instructions for the Bac-to-Bac™ baculovirus expression systems (Invitrogen). The Sf9 cells were transfected with the recombinant bacmid containing pFastBac_GSTb-TNIK_N using Cellfectin Reagent (Invitrogen) in SF-900II serum free media (Invitrogen). The viral supernatant was collected from the medium 72 h after transfection. The virus was amplified three times by infecting actively growing Sf9 or Sf21 cells in Grace's insect media (Invitrogen) supplemented with 10% FCS and an antibiotic-antimycotic reagent (Invitrogen) for 72 h at 27° C. in T-flask or roller bottles. The titer of amplified TNIK_N virus was estimated at 2.36×10^8 pfu/ml by using BacPAK™ Baculovirus Rapid Titer kit (Clontech).
Log-phase Sf21 cells (2×10^6 cells/ml) in the Grace's insect media were infected with the recombinant baculovirus at MOI of 3.0 and incubated in roller bottles (250 ml media per bottle) for 72 h at 27° C., after which, the cells were collected by centrifugation, and the cell pellet washed with cold PBS and kept at −80° C. until purification. The following purification procedures were carried out at 4° C. The frozen cells were thawed on ice and lysed in lysis buffer (50 mM Tris-HCl, pH 7.5, 150 mM NaCl, 1% Nonidet P-40, 5 mM DTT, 0.5 mM EDTA, 0.5 mM EGTA) supplemented with 1 mM phenylmethansulfonylfluoride, 2 μg/ml leupeptin, 2 μg/ml aprotinin, 1 mM NaF, 100 μM sodium orthovanadate, and 1 μM cantharidin by sonication. The suspended lysate was cleared by centrifugation at 9000 g for 20 min and the supernatant was incubated for 1 h with glutathione Sepharose beads (GE Healthcare). The beads were suspended in buffer-H (50 mM Tris-HCl, pH 7.5, 1 M NaCl, 1 mM DTT, 0.5 mM EDTA, 0.5 mM EGTA and 0.05% Brij35) and washed with buffer-H followed by buffer-L (50 mM Tris-HCl, pH 7.5, 150 mM NaCl, 1 mM DTT, 0.5 mM EDTA, 0.5 mM EGTA, 0.05% Brij35) in an Econo-pack column (BIO-RAD). The bound TNIK_N was eluted with elution buffer (50 mM Tris-HCl, pH 8.0, 150 mM NaCl, 1 mM DTT, 10% glycerol, 0.5 mM EDTA, 0.5 mM EGTA and 5 mM reduced glutathione). The eluted fractions were collected and determined the protein concentration by Bradford reagent (BIO-RAD). The TNIK_N fractions were pooled and desalted using 10DG column (BIORAD) equilibrated with the storage buffer (50 mM Tris-HCl, pH 7.5, 150 mM NaCl, 1 mM DTT, 10% glycerol, 0.05% Brij35). The purified TNIK_N was characterized by electrophoresis using 4-20% polyacrylamide gels and matrix-assisted laser desorption/ionization reflection time-of-flight (MALDI-TOF) mass spectrometry on a Voyager-DE RP MALDI/TOF (Applied Biosystems). TNIK_N was confirmed by the molecular weight and MASCOT Peptide Mass Fingerprint.
The kinase assays were conducted in a 20 μl volume using 384-well plates (Greiner). The reaction mixture consists of compound or vehicle (1% DMSO), 0.08 ng/μl TNIK_N, 1 μM FITC-labeled substrate peptides, FITC-x-Lys-Tyr-Lys-Thr-Leu-Arg-Gln ([SEQ ID NO.3], x: ε-aminocaproic acid), 20 mM Hepes, pH 7.5, 0.01% Triton X-100, 5 mM MgCl2, 25 μM ATP and 2 mM DTT. As blank, TNIK_N was excluded from the reaction mixture of vehicle (1% DMSO). […]

T1 sequence (Q9UKE5 1-314): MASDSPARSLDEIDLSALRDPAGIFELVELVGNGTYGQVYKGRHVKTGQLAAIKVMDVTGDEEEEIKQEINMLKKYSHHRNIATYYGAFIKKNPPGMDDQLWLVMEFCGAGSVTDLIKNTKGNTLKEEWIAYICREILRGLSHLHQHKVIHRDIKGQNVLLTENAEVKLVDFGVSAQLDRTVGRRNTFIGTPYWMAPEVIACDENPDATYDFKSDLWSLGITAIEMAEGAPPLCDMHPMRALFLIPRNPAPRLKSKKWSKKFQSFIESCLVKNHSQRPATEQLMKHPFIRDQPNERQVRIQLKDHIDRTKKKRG

| Compound | IC50 [nM] |
| --- | --- |
| Cc1cccc(C(=O)Nc2sc(Nc3ccccc3)nc2C(N)=O)c1 [Compound 2, 5-(3-methylbenzamido)-2-(phenylamino)thiazole-4-carboxamide] | 40 |
| NC(=O)c1nc(Nc2ccccc2)sc1NC(=O)c1ccccc1F [Compound 3, 5-(2-fluorobenzamido)-2-(phenylamino)thiazole-4-carboxamide] | 19 |
| COc1ccc(C(=O)Nc2sc(Nc3ccccc3)nc2C(N)=O)cc1 [Compound 4, 5-(4-methoxybenzamido)-2-(phenylamino)thiazole-4-carboxamide] | 10 |
| COc1cccc(C(=O)Nc2sc(Nc3ccccc3)nc2C(N)=O)c1 [Compound 5, 5-(3-methoxybenzamido)-2-(phenylamino)thiazole-4-carboxamide] | 7700 |
| NC(=O)c1nc(Nc2ccccc2)sc1NC(=O)Cc1cccs1 [Compound 6, 2-(phenylamino)-5-(2-(thiophen-2-yl)acetamido)thiazole-4-carboxamide] | 280 |
| CC(C)CC(=O)Nc1sc(Nc2ccccc2)nc1C(N)=O [Compound 7, 5-(3-methylbutanamido)-2-(phenylamino)thiazole-4-carboxamide] | 180 |
| NC(=O)c1nc(Nc2ccccc2)sc1NC(=O)CC1CCCC1 [Compound 8, 5-(2-cyclopentylacetamido)-2-(phenylamino)thiazole-4-carboxamide] | 130 |
| Cc1ccc(Nc2nc(C(N)=O)c(NC(=O)c3ccccc3F)s2)cc1 [Compound 9, 2-(p-toluidino)-5-(2-fluorobenzamido)thiazole-4-carboxamide] | 68 |
| CC(=O)Nc1ccc(C(=O)Nc2sc(Nc3ccc(C)cc3)nc2C(N)=O)cc1 [Compound 10, 2-(p-toluidino)-5-(4-acetamidobenzamido)thiazole-4-carboxamide] | 14 |
| Cc1ccc(Nc2nc(C(N)=O)c(NC(=O)c3ccccc3Cl)s2)cc1 [Compound 11, 2-(p-toluidino)-5-(2-chlorobenzamido)thiazole-4-carboxamide] | 1700 |
| Cc1ccc(Nc2nc(C(N)=O)c(NC(=O)c3cccc(Br)c3)s2)cc1 [Compound 12, 2-(p-toluidino)-5-(3-bromobenzamido)thiazole-4-carboxamide] | 1700 |
| Cc1ccc(Nc2nc(C(N)=O)c(NC(=O)c3c(F)cccc3F)s2)cc1 [Compound 13, 2-(p-toluidino)-5-(2,6-difluorobenzamido)thiazole-4-carboxamide] | 180 |
| COc1ccc(C(=O)Nc2sc(Nc3ccc(C)cc3)nc2C(N)=O)cc1OC [Compound 14, 2-(p-toluidino)-5-(3,4-dimethoxybenzamido)thiazole-4-carboxamide] | 57 |
| Cc1ccc(Nc2nc(C(N)=O)c(NC(=O)c3cccs3)s2)cc1 [Compound 15, 2-(p-toluidino)-5-(thiophene-2-carboxamido)thiazole-4-carboxamide] | 31 |
| CCC(CC)C(=O)Nc1sc(Nc2ccc(C)cc2)nc1C(N)=O [Compound 16, 2-(p-toluidino)-5-(2-ethylbutanamido)thiazole-4-carboxamide] | 4100 |
| CCNc1nc(C(N)=O)c(NC(=O)c2cc(-c3ccccc3)nc3c(C)cccc23)s1 [Compound 17, 2-(ethylamino)-5-(8-methyl-2-phenylquinoline-4-carboxamido)thiazole-4-carboxamide] | 3100 |
| Cc1ccc(C(=O)Nc2sc(Nc3ccccc3)nc2C(N)=O)cc1 [Compound A1, 5-(4-methylbenzamido)-2-(phenylamino)thiazole-4-carboxamide] | 6 |
| NC(=O)c1nc(Nc2ccccc2)sc1NC(=O)c1ccc(F)cc1 [Compound A2, 5-(4-fluorobenzamido)-2-(phenylamino)thiazole-4-carboxamide] | 17 |
| CC(=O)Nc1ccc(C(=O)Nc2sc(Nc3ccc(F)cc3)nc2C(N)=O)cc1 [Compound A4, 5-(4-acetamidobenzamido)-2-(4-fluorophenyl-amino)-thiazole-4-carboxamide] | 18 |
